We go through 2 molecules from US20260097047A1, “Small molecule inhibitors of the ribosome biogenesis factor NVL2” (Board of Regents, The University of Texas System, priority 2023, published 2026).

The subject of one data set is HCT116 NVL^R403W cells. The experiment in a line: Cell viability counter-screen in compound-resistant HCT116 NVL^R403W cells. It is filed as cell-based, human. The following applies: Homo sapiens, HCT-116; NVL^R403W knock-in. The protocol: Design and synthesis of benzothiazepine-based NVL inhibitors. […] Analogs were evaluated against the colorectal cancer cell line HCT116, and counter-screened against a compound resistant NVL2^R403W clone. Cytotoxicity in wild-type HCT116 was determined. […] Initial SAR focused on exploring the replacement of the furan ring of initial dibenzothiazepinone hit MM017. We first explored a wide variety of mono- and di-substituted phenyl rings, including a broad spectrum of functionality (F, Cl, alkyl, alkoxy, fluoroalkoxy, CN, formamide, S(O) Me, carboxyl, . . . ). […]
HCT116 cells were transfected with TransIT-LT (Mirus #MIR2304) according to manufacturer's protocol with a guide RNA (either mock or NVL targeting) in the px330 vector (Addgene, #42230), and 10 nM single stranded deoxyoligonucleotide encoding a specific NVL mutation (see below for specific sequences). […] The resulting cells were evaluated by cresyl violet staining or collected and the relevant NVL mutations were analyzed by either amplicon or sanger sequencing.
Cell viability assay: In 96-well assay plates (Corning #2903), 2,000 cells were plated per well in 100 μL of medium and allowed to adhere overnight. […] Luminescence (CellTiter-Glo) was recorded using a Synergy 2 microplate reader (BioTek). […]
(In general: A counterscreen serves to expose hits that act by an unwanted route or on another target.)

Another data set concerns the target T1, mouse NVL (Mus musculus, UniProt Q9DBY8).
T1 construct: expressed in transfected cells; host or cells: HCT116 NVL^AID/AID cells (human cells, viral infection)
The experiment in a line: Viability of NVL^AID/AID cells relying on ectopic mouse NVL (Ph-IAA). In kind it is cell-based. The following applies: endogenous NVL degraded with Ph-IAA. The text has this: Next, we investigated whether inhibitors of NVL could inhibit the growth of cell line derived xenografts tumors in mice, and whether systemic inhibition of NVL leads to specific toxicities. […] To test the potency of MM927 against mouse NVL within the same cell type, we ectopically expressed either human or mouse NVL in NVL^AID/AID cells. Treatment with Ph-IAA degrades the endogenous protein so that the cells must rely solely on ectopically expressed NVL. In the mock infected cells, degrading NVL^AID/AID by the addition of Ph-IAA reduced cell viability as expected, and the viability was completely rescued by expression of either ectopic mouse or human NVL.

Data set [1] is described as follows: Toxicity read-outs in efficacy study (body weight, blood counts, blood chemistry). In kind it is in vivo. The following applies: 35 mg/kg IP twice a day for 21 days. The protocol:
Having established the kinetics of MM927 mediated NVL inhibition in xenograft tumors, we administered 35 mg/kg MM927 IP twice a day for 21 days to mice harboring tumors derived from either HCT116 NVL wild type or NVL^R403W cells. […] Taken together, we concluded that the potent, and bioavailable analog MM927 reduces tumor growth in mouse xenografts by inhibiting NVL without toxicity.
Efficacy study: Five million parental HCT116 cells or HCT116 NVL^R403W in a volume of 0.1 mL were implanted in the right flank. Tumor volumes were measured every 2 to 4 days with calipers. Volume is calculated as [(L*W^2)*3.14]/6. When volumes reached ˜110 mm^3, treatment was started with 35 mg/kg MM927 or vehicle control (0.2 mL/mouse) twice a day for 21 days. Mice were euthanized at the end of the 21-day treatment period or when any tumor reached 2 cm in its largest diameter, in agreement with the approved animal protocol. At the end of treatment, blood and tumor tissue were collected for pharmacokinetic analysis, measurement of complete blood counts, and blood chemistry measurements as described. Serum alanine transaminase and blood urea nitrogen were analyzed using VITROS MicroSlide technology.

T1 sequence (Q9DBY8 whole entry): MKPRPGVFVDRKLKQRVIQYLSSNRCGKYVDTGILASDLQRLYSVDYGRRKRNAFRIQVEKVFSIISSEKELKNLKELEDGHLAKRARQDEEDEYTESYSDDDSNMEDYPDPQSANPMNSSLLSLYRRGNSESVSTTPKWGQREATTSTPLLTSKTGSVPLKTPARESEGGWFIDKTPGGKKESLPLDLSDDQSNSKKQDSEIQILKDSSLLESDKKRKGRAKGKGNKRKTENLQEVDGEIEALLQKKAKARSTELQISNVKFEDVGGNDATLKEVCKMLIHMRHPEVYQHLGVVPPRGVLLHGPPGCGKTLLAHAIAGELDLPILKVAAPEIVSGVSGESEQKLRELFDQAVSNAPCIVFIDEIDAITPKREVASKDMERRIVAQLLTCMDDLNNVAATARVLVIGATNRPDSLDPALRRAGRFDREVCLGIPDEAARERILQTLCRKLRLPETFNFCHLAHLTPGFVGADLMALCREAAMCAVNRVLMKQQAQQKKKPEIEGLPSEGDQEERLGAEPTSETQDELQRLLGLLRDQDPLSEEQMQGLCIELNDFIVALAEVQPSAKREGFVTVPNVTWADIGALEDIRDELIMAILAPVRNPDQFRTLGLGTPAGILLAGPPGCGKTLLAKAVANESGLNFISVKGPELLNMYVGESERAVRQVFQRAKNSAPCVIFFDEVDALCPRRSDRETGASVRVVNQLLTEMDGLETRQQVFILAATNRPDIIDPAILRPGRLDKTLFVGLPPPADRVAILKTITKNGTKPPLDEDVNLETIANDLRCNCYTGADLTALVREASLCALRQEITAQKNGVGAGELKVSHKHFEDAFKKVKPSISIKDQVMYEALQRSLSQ

Take `COCCN1C(=O)c2ccccc2Sc2cc(NC(=O)c3ccoc3)ccc21` [MM017]: the half-inhibitory concentration (IC50) (in general, the concentration needed to halve the response being measured) with HCT116 NVL^R403W cells was over 50000 nM.

Turning to `CC#CCN1C(=O)c2ccc(F)cc2Sc2cc(NC(=O)c3ccc4oc(=O)n(C)c4c3)ccc21` [MM927, N-(10-(But-2-yn-1-yl)-3-fluoro-11-oxo-10,11-dihydrodibenzo[b,f][1,4]thiazepin-7-yl)-3-methyl-2-oxo-2,3-dihydrobenzo[d]oxazole-5-carboxamide], half-maximal inhibition against mouse NVL (IC50) was put at 207 nM. For the same molecule, in data set [1], the “body weight, red and white blood cells, hemoglobin, platelets, alanine transaminase, blood urea nitrogen versus vehicle” value was “no significant difference”; the overt toxicity entry is “no signs of overt toxicity”.
